These results are taken from patent US6713468B2, “Methods of using thiazolobenzoheterocycles” (Aventis Pharma S.A., priority 1997, dated 2004).

Broadly, the melting point is the temperature of the solid-liquid transition. Consider `N=c1sc2cc(OC(F)(F)F)cc3c2n1CCC3=O` [Example 8, 2-imino-8-trifluoromethoxy-2H,4H-thiazolo-[5,4,3-ij]quinolin-6-one], for which the melting point turned out to be 192 °C. Compound `N=c1sc2cc(OC(F)(F)F)cc3c2n1CC(=O)N3` [Example 37, 2-imino-8-trifluoromethoxy-2H,4H-thiazolo[3,4,5-de]quinoxalin-5(6H)-one] registered a melting point of 255 °C.
